# According to paper PMC10386772, “Novel covalent CDK7 inhibitor potently induces apoptosis in acute myeloid leukemia and synergizes with Venetoclax” (Journal of Experimental & Clinical Cancer Research : CR, 2023):
# Molecular target: CDK7 (Homo sapiens, UniProt P50613)
# Test: LANCE TR-FRET in vitro kinase assay (U-Light-MBP peptide, […] ATP, […] min; […] at […] min, […] at […] min); bioTHZ1 competition pull-down target occupancy in MOLM13 cells
# Type: biochemical
# CDK7, sequence (P50613 2-346): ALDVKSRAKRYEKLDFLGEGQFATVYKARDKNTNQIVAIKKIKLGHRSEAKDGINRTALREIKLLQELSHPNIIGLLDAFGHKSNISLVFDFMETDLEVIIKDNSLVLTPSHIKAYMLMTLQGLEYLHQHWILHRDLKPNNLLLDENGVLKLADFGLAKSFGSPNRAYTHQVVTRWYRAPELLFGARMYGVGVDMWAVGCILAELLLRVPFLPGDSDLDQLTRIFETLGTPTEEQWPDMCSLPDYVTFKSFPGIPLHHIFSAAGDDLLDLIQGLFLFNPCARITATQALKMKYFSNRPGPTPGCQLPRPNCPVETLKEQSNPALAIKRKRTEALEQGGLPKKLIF
substance,measurement,value
XL102,IC50,0.9 nM
